Entries after “also recorded” stand apart in the source; their conditions may differ.
Assays:
Type in all cases: cell-based, human
LNCaP cells [1] = assay: CCK-8 proliferation assay; conditions: infected 48 hours, cultured 1, 3 and 5 days, Scramble group = 100%
Protocol: (§1) To examine the effect of GPR160-specific SiRNAs on proliferation of prostate cancer cells, PC-3 and LNCaP cells, after infected by virus for 48 hours, were plated in 96-well plates at a density of 5000/100/μl/well and 2500/100 μl/well, respectively, and cultured for 1, 3, and 5 days respectively, 10 μl/well of CCK-8 detection reagent (TaKaRa) was added 4 hours before the end of culture, and light absorption at 450 nm was detected at the end of incubation. The reference wavelength was 650 nm. The reading of Scramble group was set to 100%.

GPR160 gene = assay: Quantitative RT-PCR of GPR160 expression after lentiviral shRNA infection; conditions: compared with control virus ShGPR160-S10
Text: The total RNA of each cultured cell was extracted with Trizol reagent (Invitrogen), Oligo-dT was used as primer, and reverse transcriptase was transcribed to generate cDNA. The template and primers were mixed with SYBR detection reagents (TaKaRa) and detected by 7300 Quantitative PCR instrument. The reference gene encodes the β-actin gene ACTB (NC 000007.14).
The lentivirus shRNA expression plasmid (Cat. No. TL312662) was purchased from OriGene, in which the target gene sequence targeted by the GPR160 siRNA is shown in SEQ ID NO: 1, and the sense strand sequence of the siRNA is shown in SEQ ID NO.: 6, SEQ ID NO: 7, SEQ ID NO.: 8, SEQ ID NO: 9, respectively. The sense strand sequence of the non-specific control siRNA is shown in SEQ ID NO: 10.
The siRNA expression plasmid pGFP-C-shGPR160 and the control plasmid pGFP-C-Scramble were extracted with Qiagene plasmid extraction kit and mixed with the packaging plasmid, and then 293T cells that had been inoculated for 24 hours were transfected with MegaTran (OriGene), and the virus supernatant was collected after 72 hours. After centrifugation at 15000 rpm for 15 minutes to remove cell debris, a quarter volume of Lentivirus Concentration (Biomiga) was added for concentration, and was stored at −80° C. in aliquots. Viruses produced by transfection of pGFP-C-shGPR160 plasmid containing the sequences SEQ ID NO: 6 to SEQ ID NO: 9 were labeled as ShGPR160-S6, ShGPR160-S7, ShGPR160-S8, and ShGPR160-S9, respectively. The virus produced by transfection of the non-specific control plasmid was designated ShGPR160-S10.
PC-3 and LNCaP cells were infected with the prepared lentiviruses at multiplicity of infection (MOI) of 40 and 10, respectively. After 72 hours, the total RNA of the infected cells was extracted, and the expression of GPR160 in the cells was detected by quantitative RT-PCR.

PC-3 cells [2] = assay: CCK-8 proliferation assay; conditions: infected 48 hours, cultured 1, 3 and 5 days, Scramble group = 100%
Protocol: as §1

LNCaP cells [3] = assay: Colony formation, crystal violet staining; conditions: 12 to 20 days culture, versus ShGPR160-S10 control group (100%)
Protocol: (§2) Based on the above results, PC-3 and LNCaP cells were infected with ShGPR160-S6, ShGPR160-S7, and ShGPR160-S10 for 48 hours, and inoculated into […] at 1000/2 ml/well. After 12 to 20 days of continuous culture, the cells were stained with 0.1% crystal violet solution, dried, and the number of colonies per well counted. The group infected with ShGPR160-S10 virus was set as a 100% control.

PC-3 cells [4] = assay: Colony formation, crystal violet staining; conditions: 12 to 20 days culture, versus ShGPR160-S10 control group (100%)
Protocol: as §2

[5] = LNCaP cells, MOI 10, 72 hours after infection
[6] = PC-3 cells, MOI 40, 72 hours after infection

Row | Substance | effect on proliferation (LNCaP cells [1]) | inhibitory efficiency on GPR160 expression (GPR160 gene; [5]) | inhibitory efficiency on GPR160 expression (GPR160 gene; [6]) | effect on proliferation (PC-3 cells [2]) | number of clones formed (LNCaP cells [3]) | number of clones formed (PC-3 cells [4])
1 | ShGPR160-S8: Lentivirus from pGFP-C-shGPR160 plasmid; siRNA sense strand SEQ ID NO.: 8, 5′-CCATCTACCAAAGCCTGAAGGCACAGAAT-3′ | no inhibitory effect; also recorded: no significant effect | 32.8% | 41.7% |  |  | 
2 | ShGPR160-S6: Lentivirus from pGFP-C-shGPR160 plasmid; siRNA sense strand SEQ ID NO.: 6, 5′-TTGGTACAGGCTATCAGGATAACTTCCTA-3′ | significantly inhibited | 86.2% | 87.8% | significantly inhibited | significantly less | significantly less
3 | ShGPR160-S9: Lentivirus from pGFP-C-shGPR160 plasmid; siRNA sense strand SEQ ID NO.: 9, 5′-CCATTTGTCAACTGGAAGTGCTGCTTCAT-3′ |  | 56.2% | 41.8% |  |  | 
4 | ShGPR160-S7: Lentivirus from pGFP-C-shGPR160 plasmid; siRNA sense strand SEQ ID NO.: 7, 5′-TTCTATGTCAGCATTCAGAGTTACTGGCT-3′ | significantly inhibited | 91.7% | 85.0% | significantly inhibited | significantly less | significantly less
